Source: patent US11591323B2, “Muscarinic agonists as non-steroidal and non-opioid analgesics and methods of use thereof” (Barry University, priority 2019, dated 2023)
Values joined by “and” are separate entries in the source; they are usually repeats but may differ in a detail not shown here. Equal values may be shown once.

What was measured:
Parameters in all cases: host or cells: CHO cells, stably transfected
M1 muscarinic receptor [1] = target: T1, M1 muscarinic receptor (Homo sapiens, UniProt P11229); test: [3H]NMS competition binding, M1 CHO membranes; settings: Inhibition constants (KI) as negative logarithms
T1 sequence (P11229 1-460): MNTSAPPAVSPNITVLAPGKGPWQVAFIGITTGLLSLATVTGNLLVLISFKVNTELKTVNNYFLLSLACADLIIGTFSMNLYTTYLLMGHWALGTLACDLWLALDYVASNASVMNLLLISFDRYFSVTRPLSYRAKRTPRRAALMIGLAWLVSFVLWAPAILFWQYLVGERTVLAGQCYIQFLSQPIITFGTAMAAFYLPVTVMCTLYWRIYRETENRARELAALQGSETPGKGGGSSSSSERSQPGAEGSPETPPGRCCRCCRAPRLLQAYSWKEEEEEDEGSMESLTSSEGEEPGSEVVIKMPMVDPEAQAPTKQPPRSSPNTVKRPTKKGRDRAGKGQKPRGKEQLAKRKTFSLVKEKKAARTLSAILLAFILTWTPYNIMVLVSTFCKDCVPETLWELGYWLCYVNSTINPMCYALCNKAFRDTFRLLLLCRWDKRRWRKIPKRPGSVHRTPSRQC

M2 muscarinic receptor [2] = target: T2, M2 muscarinic receptor (Homo sapiens, UniProt P08172); test: [3H]NMS competition binding, M2 CHO membranes; settings: Inhibition constants (KI) as negative logarithms, reference agonists
T2 sequence (P08172 1-466): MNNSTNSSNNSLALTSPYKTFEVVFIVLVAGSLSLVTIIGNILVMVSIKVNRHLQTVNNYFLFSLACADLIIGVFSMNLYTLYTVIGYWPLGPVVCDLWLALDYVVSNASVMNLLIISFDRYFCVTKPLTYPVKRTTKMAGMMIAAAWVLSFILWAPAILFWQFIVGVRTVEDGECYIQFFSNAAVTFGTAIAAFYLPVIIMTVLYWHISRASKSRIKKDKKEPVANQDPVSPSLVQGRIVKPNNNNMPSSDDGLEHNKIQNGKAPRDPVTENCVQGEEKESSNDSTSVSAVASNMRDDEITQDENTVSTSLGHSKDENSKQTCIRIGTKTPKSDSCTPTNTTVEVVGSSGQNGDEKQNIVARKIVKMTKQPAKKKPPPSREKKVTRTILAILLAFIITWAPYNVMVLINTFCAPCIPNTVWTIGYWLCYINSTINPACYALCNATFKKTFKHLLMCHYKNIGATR

M1 muscarinic receptor [3] = target: T1, M1 muscarinic receptor; test: accumulation of inositol phosphates IPX, M1 CHO cells (M1Gq); assay type: cell-based
M2 muscarinic receptor [4] = target: T2, M2 muscarinic receptor; test: inhibition of forskolin-stimulated cAMP, M2 CHO cells (M2Gi); assay type: cell-based
M3 muscarinic receptor = M3 muscarinic receptor (Homo sapiens, UniProt P20309); test: accumulation of IPX, M3 CHO cells (M3Gq); assay type: cell-based
M4 muscarinic receptor = target: T3, M4 muscarinic receptor (Homo sapiens, UniProt P08173); test: inhibition of forskolin-stimulated cAMP, M4 CHO cells (M4Gi); assay type: cell-based
T3 sequence (P08173 1-479): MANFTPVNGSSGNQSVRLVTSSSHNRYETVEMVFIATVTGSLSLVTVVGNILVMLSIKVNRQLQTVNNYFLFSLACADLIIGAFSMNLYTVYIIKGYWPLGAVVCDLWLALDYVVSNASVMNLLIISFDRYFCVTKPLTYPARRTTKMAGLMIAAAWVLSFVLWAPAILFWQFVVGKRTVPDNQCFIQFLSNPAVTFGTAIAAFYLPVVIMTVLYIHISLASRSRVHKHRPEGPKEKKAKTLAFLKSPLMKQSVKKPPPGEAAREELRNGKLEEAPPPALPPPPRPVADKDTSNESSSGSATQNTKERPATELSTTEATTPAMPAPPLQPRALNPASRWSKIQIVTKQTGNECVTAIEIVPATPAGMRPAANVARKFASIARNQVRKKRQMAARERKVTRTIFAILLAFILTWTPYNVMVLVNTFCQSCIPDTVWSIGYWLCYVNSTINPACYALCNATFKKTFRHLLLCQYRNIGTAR

Sequence of M3 muscarinic receptor (P20309 whole entry): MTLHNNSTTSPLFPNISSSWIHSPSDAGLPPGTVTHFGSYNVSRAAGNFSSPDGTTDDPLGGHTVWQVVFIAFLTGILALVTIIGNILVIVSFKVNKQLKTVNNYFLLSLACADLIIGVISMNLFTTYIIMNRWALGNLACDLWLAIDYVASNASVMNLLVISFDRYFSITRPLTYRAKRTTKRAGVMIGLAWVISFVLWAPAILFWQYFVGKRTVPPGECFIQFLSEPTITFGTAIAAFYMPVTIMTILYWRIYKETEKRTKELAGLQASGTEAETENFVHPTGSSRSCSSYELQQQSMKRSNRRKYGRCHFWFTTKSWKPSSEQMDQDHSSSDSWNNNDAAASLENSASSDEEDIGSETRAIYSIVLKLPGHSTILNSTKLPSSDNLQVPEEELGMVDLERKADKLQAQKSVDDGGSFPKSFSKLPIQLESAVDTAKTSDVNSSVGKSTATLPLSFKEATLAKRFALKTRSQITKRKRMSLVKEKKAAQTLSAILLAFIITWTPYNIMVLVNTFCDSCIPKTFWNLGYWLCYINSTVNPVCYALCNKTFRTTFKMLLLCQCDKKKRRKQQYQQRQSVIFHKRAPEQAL

## O=C1CCCN1CC#CCN1CCCC1 [oxotremorine, reference compound]
M1 muscarinic receptor [1]; M1, high site
  Ki: 7.94 nM
M1 muscarinic receptor [1]; M1, low site
  Ki: 372 nM
M2 muscarinic receptor [2]; M2, high site, high affinity site
  Ki: 12.6 nM
M2 muscarinic receptor [2]; M2, low site, low affinity site
  Ki: 575 nM
M1 muscarinic receptor [3]
  Kd: 200 nM
  RAi: 3.71 ± 0.29 and 3.84 ± 0.28
  pKA: 6.7 ± 0.1
  Δlog(τ/KA): −0.57 ± 0.06 and −0.58 ± 0.05
  τ: 2.55 ± 0.25 and 2.6 ± 0.3
M1 muscarinic receptor [3]; pEC50
  EC50: 52.5 nM and 55 nM
M2 muscarinic receptor [4]
  EC50: 5.75 nM
  Kd: 12.6 nM
M2 muscarinic receptor [4]; M2 (↓cAMP), preferential response, Table 7
  E′MAX: 43 ± 1 % inhibition
M2 muscarinic receptor [4]; M2 (↓cAMP), preferential response, Table 7, operational efficacy
  τ: 0.96 ± 0.08
M2 muscarinic receptor [4]; M2 (↓cAMP), preferential response, relative to carbachol, Tables 2, 3, 7
  RAi: 6.34 ± 0.15
M2 muscarinic receptor [4]; M2 (↓cAMP), preferential response, to carbachol, Tables 2, 3, 7
  Δlog(τ/KA): −0.81 ± 0.01
M2 muscarinic receptor [4]; M2Gi (↓cAMP), Table 8
  E′MAX: 43 ± 1 % inhibition
  pEC50: 8.24 ± 0.04
  pKA: 7.9 ± 0.1
  τ: 1.0 ± 0.1
M2 muscarinic receptor [4]; M2Gi (↓cAMP), Table 8, relative to carbachol
  RAi: 6.34 ± 0.15
M2 muscarinic receptor [4]; M2Gi (↓cAMP), Table 8, to carbachol
  Δlog(τ/KA): −0.81 ± 0.01
M3 muscarinic receptor
  EC50: 95.5 nM
  E′MAX: 22 ± 2 fold over basal
  Kd: 398 nM
  RAi: 4.14 ± 0.38 and 4.14 ± 0.41
  pEC50: 7.02 ± 0.04
  pKA: 6.4 ± 0.1
  Δlog(τ/KA): −0.62 ± 0.06
  τ: 2.97 ± 0.30 and 3.0 ± 0.3
M4 muscarinic receptor
  Kd: 31.6 nM
M4 muscarinic receptor; CHO
  Emax: 48 ± 2%
M4 muscarinic receptor; M4 (↓cAMP), preferential response, Table 7
  pEC50: 7.85 ± 0.04
M4 muscarinic receptor; M4 (↓cAMP), preferential response, Table 7, operational efficacy
  τ: 1.17 ± 0.08
M4 muscarinic receptor; M4 (↓cAMP), preferential response, relative to carbachol, Tables 2, 3, 7
  RAi: 3.81 ± 0.16
M4 muscarinic receptor; M4 (↓cAMP), preferential response, to carbachol, Tables 2, 3, 7
  Δlog(τ/KA): −0.62 ± 0.08
M4 muscarinic receptor; M4Gi (↓cAMP), Table 8
  E′MAX: 48 ± 2 % inhibition
  pEC50: 7.85 ± 0.04
  pKA: 7.5 ± 0.1
  τ: 1.2 ± 0.1
M4 muscarinic receptor; M4Gi (↓cAMP), Table 8, relative to carbachol
  RAi: 3.81 ± 0.16
M4 muscarinic receptor; M4Gi (↓cAMP), Table 8, to carbachol
  Δlog(τ/KA): −0.62 ± 0.08
